US20240148820A1 (priority 2021, published 2024)
Where no end group is shown, it is not given here.

Target: S protein of SARS-CoV-2 (Severe acute respiratory syndrome coronavirus 2, UniProt P0DTC2)
Format: binding

Sequence: IPLRGAFINGRWDSQCHRFS [U5]
- effect of U5 on P9R binding to S protein: not P9R binding to S protein
